Tested on: CHIKV
Assay type: cell-based, chikungunya virus

Substance | Score_si3 | Score_si2 | Score_si4 | other results
s27210 (sense GGTTTTAAACATAACGAAA; chemistry not given here) [reference compound] | -0.32 | – | – | –
s27235 (sense AGACCCACACTAAAGAATT; chemistry not given here) [reference compound] | – | -0.6 | – | –
s27237 (sense ACACTAAAGAATTCCGGAA; chemistry not given here) [reference compound] | -0.27 | – | – | –
s27640 (sense TGAAAAACGTAGAAATGAA; chemistry not given here) | – | 1.74 | – | –
s27641 (sense GGGAAACAGTTGGAAGAGA; chemistry not given here) | 1.64 | – | – | –
s27642 (sense GCATGATGTTCGTCCGCAA; chemistry not given here) | – | – | 1.26 | –
s28294 (sense CATTCTGTGGTGAAACATT; chemistry not given here) | – | – | – | Score_si1: 1.28
s28296 (sense CTTCCTCGGTGGAACACGA; chemistry not given here) | – | 1.22 | – | –
s28365 (sense AGATCGACAAGAACGAAGA; chemistry not given here) [reference compound] | – | – | -0.72 | –
s28367 (sense CGACAAGAACGAAGACAGA; chemistry not given here) [reference compound] | – | -1.08 | – | –
s28378 (sense CATTGTCACTTATTCGACT; chemistry not given here) | – | – | 1.57 | –
s28379 (sense GAGTTACGATTGTACCCTA; chemistry not given here) | 1.67 | – | – | –
s28640 (CACTCACACCATCCTATGA; chemistry not given here) | – | – | – | Score_si1: 1.62
s28991 (GAAGAGGTTTTGGAGTATA; chemistry not given here) | – | – | 0.22 | –
s28992 (GAGCAACTCTGGTCGTGTA; chemistry not given here) | 0.46 | – | – | –
s28993 (CCATAGATCTGAATTGGGA; chemistry not given here) | – | 0.6 | – | –
s29015 (GAGAGTATATTGACTATGA; chemistry not given here) | – | – | 0.52 | –
s29017 (GTCAGTACTTTATCTCGTT; chemistry not given here) | – | 1.25 | – | –
s29268 (GGATGCGAAAGACAGAGTA; chemistry not given here) | – | 1.55 | – | –
s29269 (CAGTTTACCGAGGAAGAAA; chemistry not given here) | 1.26 | – | – | –
s30117 (GGTCTTTGGTGGTGTACAA; chemistry not given here) | 0.96 | – | – | –
s30118 (CCTGCTATCTTGGTTCCAA; chemistry not given here) | – | – | 0.62 | –

Substance | Score_si3 | Score_si2 | Score_si4 | other results
s30606 (CAGTGATGGTGATTCAGAT; chemistry not given here) | – | – | 0.49 | –
s31180 (CCATAGATGAGAAGCGGTT; chemistry not given here) | 1.93 | – | – | –
s31181 (CCACTCGTTTTGACTATTA; chemistry not given here) | – | – | 1.82 | –
s31191 (GATAATCAGTTCAACTAAA; chemistry not given here) | – | 1.84 | – | –
s31192 (GGAAGGACTTACTACTACA; chemistry not given here) | 1.79 | – | – | –
s31193 (GGAATGATGTCGTCAGTAA; chemistry not given here) | – | – | 1.58 | –
s31318 (GTACATCTTCGAATACGAT; chemistry not given here) | – | 1.43 | – | –
s31658 (CGGCCTCTGAGGTGATCAA; chemistry not given here) | – | 1.55 | – | –
s31659 (CCTCTGAGGTGATCAATGA; chemistry not given here) | 1.43 | – | – | –
s31660 (CTGTCACACTCACTGAAAA; chemistry not given here) | – | – | – | Score_si1: 1.8
s31789 (AGGACATTATCAACCCGGA; chemistry not given here) | 1.5 | – | – | –
s31790 (GGCTGTTCCTGAGACTGCA; chemistry not given here) | – | – | 0.92 | –
s31791 (GACCTTAAGATACCAGTAT; chemistry not given here) | – | 1.71 | – | –
s31800 (CCACACTCATCTATCGCAA; chemistry not given here) | – | 1.32 | – | –
s32095 (CAGAAACGATCTACAAGAA; chemistry not given here) | – | – | 1.53 | –
s32096 (GTTCCAGTATGGGAATTAT; chemistry not given here) | 1.63 | – | – | –
s32097 (ACAGCGCAAGTTCCAGTAT; chemistry not given here) | – | 1.75 | – | –
s32489 (GGAACAAGCTGTGATCCCA; chemistry not given here) | – | – | – | Score_si1: 1.66
s32491 (GCCTGTATATGAGAGCCTT; chemistry not given here) | – | – | 0.05 | –
s33487 (GGTTATCAATGACGAGCAA; chemistry not given here) | 1.7 | – | – | –
s33488 (CCACCTAGCTTGTAACGAA; chemistry not given here) | – | – | 1.58 | –
s33489 (GGACTTCTGAAAATTCGCA; chemistry not given here) | – | 1.9 | – | –

Substance | Score_si3 | Score_si2 | Score_si4 | other results
s33581 (GTACTTATATGAACGTATT; chemistry not given here) | – | – | 1.43 | –
s33582 (CACCTAGAGTACGAAAACA; chemistry not given here) | – | – | – | Score_si1: 1.69
s34427 (GGTCAGAGACCATCCAGAA; chemistry not given here) | – | 1.71 | – | –
s34429 (CTCCTGCCTTGAGCCCTTA; chemistry not given here) | – | – | 0.3 | –
s34678 (GAGTTTAAGATGATGCCTA; chemistry not given here) | 0.6 | – | – | –
s34679 (GGAAAGAAGGGAATGAGTT; chemistry not given here) | – | 1.1 | – | –
s35016 (CCTGATCCACGAGAAGTCA; chemistry not given here) | – | 1.63 | – | –
s35017 (AAGACAGGCTGATCAACTA; chemistry not given here) | 0.94 | – | – | –
s35018 (GTGTGAAGGTAGACCGTGA; chemistry not given here) | – | – | 0.46 | –
s35330 (CGGTGACTATGAAAGAAAT; chemistry not given here) | – | – | 0.15 | –
s35331 (GCAGGTAATCTCTATACTA; chemistry not given here) | – | 1.81 | – | –
s35332 (CAGGTATTCAGGTCCATGA; chemistry not given here) | 0.27 | – | – | –
s35400 (ACGCAGAGGCGGGAACAAA; chemistry not given here) | 0.6 | – | – | –
s35401 (GGAACAAACTAGCCCTCAA; chemistry not given here) | – | 0.91 | – | –
s36691 (CAGATGTTATGGATATAAT; chemistry not given here) [reference compound] | – | – | – | Score_si1: -1.07
s36692 (GGCTATTGATTGTCCACAT; chemistry not given here) [reference compound] | – | – | -0.43 | –
s37713 (GAACCTCCTTCGGGATAAA; chemistry not given here) | 0.52 | – | – | –
s37714 (GCTCCTCAAAGGATATGAA; chemistry not given here) | – | – | -0.71 | –
s37715 (CCGGAGAACCTGAAACTCA; chemistry not given here) | – | 1.43 | – | –
s37726 (ACTTTTCCCTCTCTCCTAA; chemistry not given here) | 0.28 | – | – | –
s37727 (GTAGCAGTGTGGTAGGATA; chemistry not given here) | – | – | -0.44 | –
s37917 (GCCTCAGCTCAAACTCAAA; chemistry not given here) | – | 1.72 | – | –

Substance | Score_si3 | Score_si2 | Score_si4 | other results
s37918 (GAAGAGCACAAGAACCAGA; chemistry not given here) | 0.93 | – | – | –
s38241 (TCCTTTTCCATGTACCAGA; chemistry not given here) | – | – | 0.18 | –
s38242 (CGGTCTCATGTACCAGAAA; chemistry not given here) | 0.52 | – | – | –
s38243 (AGAAATTCCGGAACCAATT; chemistry not given here) | – | 0.8 | – | –
s38293 (GTAACAACAAATACTCATA; chemistry not given here) | – | 1.65 | – | –
s38294 (GGGTCCTGTTCATAAAGGA; chemistry not given here) | – | – | 1.14 | –
s38295 (GCAATTCTGACGACAATAT; chemistry not given here) | 1.57 | – | – | –
s38697 (GCAATTTGCTGTTGCCGAA; chemistry not given here) | -0.06 | – | – | –
s38698 (GGATTCTTGTTGGACTAAT; chemistry not given here) | – | – | -0.7 | –
s38699 (CCAGGAACTATGACACGTA; chemistry not given here) | – | 0.75 | – | –
s38777 (GGCTCAAACTGGGAGTCAA; chemistry not given here) | – | 1.07 | – | –
s38778 (CCCTTCCTCTATTCGAACA; chemistry not given here) | – | – | -0.27 | –
s38779 (CCAAGATGACTGTGAATAA; chemistry not given here) | 0.42 | – | – | –
s38816 (GAACATCTGGATCAAGAGA; chemistry not given here) | 1.02 | – | – | –
s38817 (GCAAATCTCTCTATCCTTA; chemistry not given here) | – | – | 0.06 | –
s49211 (sense GTTCCTGGGTGTTCACCTA; chemistry not given here) | – | – | 0.08 | –
s49212 (sense GATCGTTCCTGGGTGTTCA; chemistry not given here) | – | 0.94 | – | –
s50141 (sense AGATACCTTTATGAATATA; chemistry not given here) [reference compound] | -0.76 | – | – | –
s50143 (sense AAATAAATCTGGTGCATTA; chemistry not given here) [reference compound] | – | – | -0.41 | –
s50641 (sense ACAACTCTGTGCACAACAA; chemistry not given here) | – | – | 0.17 | –
s50642 (sense CCTTCATGGTGGGACTGTA; chemistry not given here) | 0.69 | – | – | –
s51651 (sense TGAGCAGTGAGAACCCATA; chemistry not given here) | – | 1.55 | – | –

Source: PMC4865845, “A human genome-wide loss-of-function screen identifies effective chikungunya antiviral drugs” (Nature Communications, 2016)
